# Test results published in ChEMBL document CHEMBL5390237, “Discovery of Selective Histone Deacetylase 1 and 2 Inhibitors: Screening of a Focused Library Constructed by Click Chemistry, Kinetic Binding Analysis, and Biological Evaluation” (J Med Chem, 2023).
# Molecular target: Histone deacetylase 2 (Homo sapiens, UniProt Q92769)
# Assay: Inhibition of full-length recombinant human C-terminal GST tagged HDAC2 expressed in Sf9 insect cells using aminoluciferin peptide substrate at 100 nM preincubated for 3 hrs followed by substrate addition and measured after 30 mins by HDAC-Glo I/II chemiluminescence assay
# Details: time 3.5 hrs
# Sequence of Histone deacetylase 2 (Q92769 whole entry): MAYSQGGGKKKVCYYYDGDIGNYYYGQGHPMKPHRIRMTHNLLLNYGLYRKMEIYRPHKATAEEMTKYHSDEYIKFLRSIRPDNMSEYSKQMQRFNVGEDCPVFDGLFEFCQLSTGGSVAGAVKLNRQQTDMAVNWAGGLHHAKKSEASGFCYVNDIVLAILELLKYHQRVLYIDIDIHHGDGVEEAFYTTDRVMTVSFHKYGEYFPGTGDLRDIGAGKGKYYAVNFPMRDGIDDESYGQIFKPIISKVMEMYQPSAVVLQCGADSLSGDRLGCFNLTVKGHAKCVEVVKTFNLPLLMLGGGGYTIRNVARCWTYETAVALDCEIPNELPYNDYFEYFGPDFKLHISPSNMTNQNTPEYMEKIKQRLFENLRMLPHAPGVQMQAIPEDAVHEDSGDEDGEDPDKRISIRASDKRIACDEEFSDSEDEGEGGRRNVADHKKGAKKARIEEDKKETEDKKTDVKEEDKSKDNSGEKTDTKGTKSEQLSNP
row,inhibition [%],Structure (SMILES)
1,2,Nc1ccc(-c2cccs2)cc1NC(=O)c1cccc(-c2cn(CCc3ccccc3C(F)(F)F)nn2)c1
2,7,Nc1ccc(-c2ccc(F)cc2)cc1NC(=O)c1cn(-c2ccc(I)cc2)nn1
3,18,Nc1ccc(-c2ccc(F)cc2)cc1NC(=O)CCc1cn(CCc2ccccn2)nn1
4,0,Nc1ccc(-c2cccs2)cc1NC(=O)CCc1cn(-c2ccccc2-c2ccccc2)nn1
5,0,Nc1ccc(-c2ccccc2)cc1NC(=O)CCc1cn(CCc2ccccc2C(F)(F)F)nn1
6,3,Nc1ccc(-c2cccs2)cc1NC(=O)c1cn(CCC2CCCCC2)nn1
7,9,Nc1ccc(-c2cccs2)cc1NC(=O)c1cn(CCc2ccccc2)nn1
8,2,Nc1ccc(-c2cccnc2)cc1NC(=O)CCc1cn(-c2ccc(Br)cc2)nn1
9,0,Nc1ccc(-c2cccs2)cc1NC(=O)CCc1cn(-c2cccc3ccccc23)nn1
10,32,Nc1ccc(-c2ccc(F)cc2)cc1NC(=O)c1cn(CC(=O)Nc2ccc(F)cc2)nn1
11,74,Cc1csc(CCn2cc(-c3ccc(C(=O)Nc4cc(-c5cccs5)ccc4N)s3)nn2)n1
12,0,Nc1ccc(-c2ccccc2)cc1NC(=O)c1cn(CC2CCCCC2)nn1
13,17,Nc1ccc(-c2cccs2)cc1NC(=O)c1cccc(-c2cn(CCc3ccccc3)nn2)c1
14,48,Cc1cccc(C)c1NC(=O)Cn1cc(-c2ccc(C(=O)Nc3cc(-c4cccs4)ccc3N)s2)nn1
15,7,Cc1ccc(CCn2cc(C(=O)Nc3cc(-c4ccc(F)cc4)ccc3N)nn2)cc1
16,11,Nc1ccc(-c2cccs2)cc1NC(=O)CCc1cn(CCc2ccc(F)cc2)nn1
17,0,Nc1ccc(-c2cccs2)cc1NC(=O)c1ccc(-c2cn(-c3ccccc3-c3ccccc3)nn2)s1
18,19,Nc1ccc(-c2cccnc2)cc1NC(=O)CCc1cn(CCc2c[nH]c3ccccc23)nn1
19,14,Nc1ccc(-c2cccs2)cc1NC(=O)c1ccc(-c2cn(CCc3ccc(F)cc3)nn2)cc1
20,30,Nc1ccc(-c2cccs2)cc1NC(=O)c1ccc(-c2cn(Cc3ccc4ccccc4n3)nn2)s1
21,15,Nc1ccc(-c2cccnc2)cc1NC(=O)CCc1cn(CCc2cccc([N+](=O)[O-])c2)nn1
22,26,Cc1cccc(CCn2cc(CCC(=O)Nc3cc(-c4ccsc4)ccc3N)nn2)c1
23,0,Nc1ccc(-c2ccsc2)cc1NC(=O)c1cn(CCc2ccc(C(F)(F)F)cc2)nn1
24,9,Nc1ccc(-c2cccs2)cc1NC(=O)c1cn(CCCc2ccccc2)nn1

row,inhibition [%],Structure (SMILES)
1,31,Nc1ccc(-c2ccsc2)cc1NC(=O)CCc1cn(Cc2ccc(C(=O)O)cc2)nn1
2,0,Nc1ccc(-c2ccc(F)cc2)cc1NC(=O)c1cn(CCC2CCCC2)nn1
3,18,Nc1ccc(-c2ccsc2)cc1NC(=O)c1cn(CCc2ccc(C(=O)O)cc2)nn1
4,18,Nc1ccc(-c2cccs2)cc1NC(=O)c1cn(CCN2CCc3ccccc3C2)nn1
5,5,Nc1ccc(-c2cccs2)cc1NC(=O)CCc1cn(CCc2cccc(F)c2)nn1
6,0,Nc1ccc(-c2cccs2)cc1NC(=O)c1cccc(-c2cn(CCc3ccccc3[N+](=O)[O-])nn2)c1
7,0,Nc1ccc(-c2cccs2)cc1NC(=O)c1cccc(-c2cn(Cc3cccc(-c4ccccc4)c3)nn2)c1
8,25,Nc1ccc(-c2cccs2)cc1NC(=O)c1ccc(-c2cn(Cc3cccc(C(=O)O)c3)nn2)s1
9,0,Nc1ccc(-c2cccs2)cc1NC(=O)c1ccc(-c2cn(CCc3ccccc3C(F)(F)F)nn2)cc1
10,65,Nc1ccc(-c2cccs2)cc1NC(=O)c1ccc(-c2cn(CCc3ccccc3)nn2)cc1
11,28,Nc1ccc(-c2cccs2)cc1NC(=O)c1ccc(-c2cn(CCCCCCC(=O)O)nn2)s1
12,6,Nc1ccc(-c2ccccc2)cc1NC(=O)c1cn(CCCc2ccccc2)nn1
13,0,Cc1ccc(-n2cc(C(=O)Nc3cc(-c4ccccc4)ccc3N)nn2)cc1C
14,0,Nc1ccc(-c2cccs2)cc1NC(=O)c1cn(CCc2cccc3ccccc23)nn1
15,2,COc1ccc(-n2cc(C(=O)Nc3cc(-c4ccccc4)ccc3N)nn2)cc1
16,0,Nc1ccc(-c2cccs2)cc1NC(=O)c1cn(Cc2cccc(C(=O)O)c2)nn1
17,0,Nc1ccc(-c2ccccc2)cc1NC(=O)c1cn(-c2ccccc2-c2ccccc2)nn1
18,0,Nc1ccc(-c2ccsc2)cc1NC(=O)c1cn(CCc2cccc3ccccc23)nn1
19,15,Nc1ccc(-c2ccc(F)cc2)cc1NC(=O)CCc1cn(CCCCCCCC(=O)O)nn1
20,20,Nc1ccc(-c2cccs2)cc1NC(=O)c1cccc(-c2cn(CCN3CCc4ccccc4C3)nn2)c1
21,0,COc1ccc(Cn2cc(-c3cccc(C(=O)Nc4cc(-c5cccs5)ccc4N)c3)nn2)cc1
22,2,CCc1ccc(Cn2cc(CCC(=O)Nc3cc(-c4ccc(F)cc4)ccc3N)nn2)cc1
23,13,Nc1ccc(-c2cccnc2)cc1NC(=O)CCc1cn(CCc2cccc(C(F)(F)F)c2)nn1
24,0,Nc1ccc(-c2cccnc2)cc1NC(=O)CCc1cn(CCc2ccccn2)nn1

row,inhibition [%],Structure (SMILES)
1,5,Nc1ccc(-c2cccnc2)cc1NC(=O)CCc1cn(CCN2CCc3ccccc3C2)nn1
2,14,Nc1ccc(-c2cccs2)cc1NC(=O)CCc1cn(CCN2CCc3ccccc3C2)nn1
3,33,Cc1cccc(C)c1NC(=O)Cn1cc(C(=O)Nc2cc(-c3ccc(F)cc3)ccc2N)nn1
4,9,Nc1ccc(-c2ccccc2)cc1NC(=O)CCc1cn(CCCc2ccccc2)nn1
5,0,Nc1ccc(-c2ccsc2)cc1NC(=O)c1cn(CCC2CCCC2)nn1
6,0,Nc1ccc(-c2cccnc2)cc1NC(=O)CCc1cn(Cc2cccc(C(=O)O)c2)nn1
7,40,Nc1ccc(-c2cccs2)cc1NC(=O)c1ccc(-c2cn(CCc3ccccc3)nn2)s1
8,68,Cc1csc(CCn2cc(-c3ccc(C(=O)Nc4cc(-c5cccs5)ccc4N)cc3)nn2)n1
9,0,Nc1ccc(-c2cccs2)cc1NC(=O)CCc1cn(CCc2ccccc2C(F)(F)F)nn1
10,22,Nc1ccc(-c2ccsc2)cc1NC(=O)CCc1cn(CCc2c[nH]c3ccccc23)nn1
11,17,Nc1ccc(-c2cccs2)cc1NC(=O)c1cccc(-c2cn(Cc3cccc(C(=O)O)c3)nn2)c1
12,0,Nc1ccc(-c2ccc(F)cc2)cc1NC(=O)c1cn(CCc2ccc(Cl)cc2)nn1
13,1,Nc1ccc(-c2cccnc2)cc1NC(=O)CCc1cn(CCc2ccsc2)nn1
14,0,Nc1ccc(-c2ccccc2)cc1NC(=O)CCc1cn(CCC23CC4CC(CC(C4)C2)C3)nn1
15,2,Nc1ccc(-c2cccs2)cc1NC(=O)c1cn(CCCCCCCC(=O)O)nn1
16,5,Nc1ccc(-c2cccs2)cc1NC(=O)CCc1cn(CCc2ccccc2Cl)nn1
17,9,Nc1ccc(-c2ccccc2)cc1NC(=O)CCc1cn(CCc2ccc(F)cc2)nn1
18,0,Nc1ccc(-c2cccs2)cc1NC(=O)c1ccc(-c2cn(CCCCCc3ccccc3)nn2)cc1
19,0,Nc1ccc(-c2ccsc2)cc1NC(=O)c1cn(Cc2ccc(OC(F)(F)F)cc2)nn1
20,7,Cc1cccc(CCn2cc(C(=O)Nc3cc(-c4ccsc4)ccc3N)nn2)c1
21,3,Nc1ccc(-c2cccnc2)cc1NC(=O)CCc1cn(Cc2ccc3ccccc3n2)nn1
22,49,Nc1ccc(-c2ccsc2)cc1NC(=O)c1cn(Cc2ccc(C(=O)O)cc2)nn1
23,0,CCc1ccc(Cn2cc(C(=O)Nc3cc(-c4ccc(F)cc4)ccc3N)nn2)cc1
24,9,Nc1ccc(-c2cccs2)cc1NC(=O)CCc1cn(CCCCCCC(=O)O)nn1

row,inhibition [%],Structure (SMILES)
1,39,Nc1ccc(-c2ccc(F)cc2)cc1NC(=O)CCc1cn(Cc2ccc(C(=O)O)cc2)nn1
2,3,Nc1ccc(-c2ccsc2)cc1NC(=O)CCc1cn(-c2ccc(Br)cc2)nn1
3,0,Nc1ccc(-c2cccnc2)cc1NC(=O)CCc1cn(CC(=O)Nc2ccc(F)cc2)nn1
4,7,Nc1ccc(-c2ccc(F)cc2)cc1NC(=O)CCc1cn(-c2ccc([N+](=O)[O-])cc2)nn1
5,4,Nc1ccc(-c2ccsc2)cc1NC(=O)c1cn(Cc2cccc3ccccc23)nn1
6,1,Nc1ccc(-c2cccnc2)cc1NC(=O)CCc1cn(CCc2ccccc2[N+](=O)[O-])nn1
7,11,Nc1ccc(-c2ccsc2)cc1NC(=O)CCc1cn(CCc2ccccc2Cl)nn1
8,0,Nc1ccc(-c2cccs2)cc1NC(=O)c1cccc(-c2cn(CC34CC5CC(CC(C5)C3)C4)nn2)c1
9,0,Nc1ccc(-c2ccccc2)cc1NC(=O)CCc1cn(CC2CCCCC2)nn1
10,27,Nc1ccc(-c2ccccc2)cc1NC(=O)CCc1cn(Cc2ccc(C(=O)O)cc2)nn1
11,0,Nc1ccc(-c2ccccc2)cc1NC(=O)c1cn(CCCCCCCC(=O)O)nn1
12,0,COc1ccccc1CCn1cc(C(=O)Nc2cc(-c3ccsc3)ccc2N)nn1
13,11,Nc1ccc(-c2cccs2)cc1NC(=O)CCc1cn(-c2ccc(Br)cc2)nn1
14,5,CCc1ccc(Cn2cc(CCC(=O)Nc3cc(-c4cccnc4)ccc3N)nn2)cc1
15,0,Cc1ccccc1CCn1cc(C(=O)Nc2cc(-c3ccccc3)ccc2N)nn1
16,0,Nc1ccc(-c2ccccc2)cc1NC(=O)CCc1cn(Cc2cccc(-c3ccccc3)c2)nn1
17,11,Cc1ccc(-n2cc(C(=O)Nc3cc(-c4ccc(F)cc4)ccc3N)nn2)cc1C
18,3,Nc1ccc(-c2ccc(F)cc2)cc1NC(=O)CCc1cn(-c2ccc(O)cc2)nn1
19,0,Nc1ccc(-c2ccsc2)cc1NC(=O)c1cn(Cc2ccc(Oc3ccccc3)cc2)nn1
20,12,Nc1ccc(-c2cccs2)cc1NC(=O)CCc1cn(-c2ccc(O)cc2)nn1
21,0,Nc1ccc(-c2ccsc2)cc1NC(=O)c1cn(Cc2cc3ccccc3s2)nn1
22,11,Nc1ccc(-c2ccccc2)cc1NC(=O)CCc1cn(Cc2ccc3ccccc3c2)nn1
23,9,Nc1ccc(-c2cccnc2)cc1NC(=O)CCc1cn(CCc2ccc(C(=O)O)cc2)nn1
